Experimental data reported in ChEMBL document CHEMBL1143038, “Highly oxygenated and unsaturated metabolites providing a diversity of hispidin class antioxidants in the medicinal mushrooms Inonotus and Phellinus” (Bioorg Med Chem, 2007).

Assays:
Assay type in all cases: functional
[1] = tested on: Radical scavenging activity; experiment: Antioxidant activity assessed as DPPH radical scavenging activity
[2] = Antioxidant activity assessed as superoxide radical anion scavenging activity
[3] = Antioxidant activity assessed as ABTS radical scavenging activity

`COC(=O)/C(=C\c1ccc(O)c(O)c1)c1c(O)cc(/C=C/c2ccc(O)c(O)c2)oc1=O` [INTERFUNGIN C] showed an IC50 [1] of 3.7 µM, an IC50 [2] of 3.1 µM and an IC50 [3] of 11.1 µM.
For VITAMIN E, the IC50 [1] was > 100 µM, the IC50 [2] was 3.4 µM and the IC50 [3] was 11.6 µM.
With `CC(=O)/C=C(O)/C(=C\c1ccc(O)c(O)c1)c1c(O)cc(/C=C/c2ccc(O)c(O)c2)oc1=O` [INTERFUNGIN A] the IC50 [1] was 6.3 µM, the IC50 [2] was 2.7 µM and the IC50 [3] was 14.1 µM.
`CC(=O)/C(=C\c1ccc(O)c(O)c1)c1c(O)cc(/C=C/c2ccc(O)c(O)c2)oc1=O` [INTERFUNGIN B] gave an IC50 [1] of 2.5 µM, an IC50 [2] of 1.8 µM and an IC50 [3] of 11.1 µM.
In the case of `O=C(O)/C=C/c1ccc(O)c(O)c1` [CAFFEIC ACID], the IC50 [1] is reported as 3.7 µM, the IC50 [2] is reported as 2.2 µM and the IC50 [3] is reported as 25.9 µM.
